Assay results as given in patent publication US5409932A, “Piperazine-substituted pyrroloanthracenes” (Bayer AG, priority 1993, dated 1995).

Experiments:
[1] = system: Adjuvant Arthritis model in the Rat; assay: Adjuvant Arthritis model in the Rat (paw swelling); format: in vivo; conditions: Lewis rats; for inhibition in vivo at 10 mg/kg: Rattus norvegicus, ip, 384 h, 10 mg/kg i.p., days 0, 1, 2, 5, 7, 9, 12 and 14, day 16 vs day 0, read-out: Inhibition of the swelling (%), after administration of 10 mg/kg i.p.; for Inhibition of the swelling (%), after administration of 10 mg/kg i.p.: days 0, 1, 2, 5, 7, 9, 12 and 14, day 16 vs day 0
Description: Adjuvant Arthritis model in the Rat
Freund's adjuvant (FA) is prepared by addition of 10 mg/ml of heat-killed Mycobacterium butyricum to extra-heavy mineral oil. Lewis rats receive a 0.1 ml injection of FA (1 mg/animal) subcutaneously in the right hind paw. An acute inflammation takes place there, which is characterized by reddening, edema and a predominant neutrophilic cell infiltration (primary reaction). Tumescent areas in the treated paw on day 5 are followed between day 10-12 by an increase in the swelling (chronic inflammatory reaction) and the occurrence of a swelling in the opposite untreated paw (secondary immune response).
The cell infiltration of the chronic inflammation and the second immune response are mainly mononuclear, which indicates the presence of T-cell mediated immunity. The animals are observed daily, and the swelling is measured in millimeters on days 12 and 16 using a hand-adjustable micrometer. The swelling reaches its peak on the 16th day, on which the animals are sacrificed and tissue samples are taken for histological evaluation.
The extent of the swelling is determined by calculation of the greatest difference in the malleolus diameter between the 16th and the 0th day.
The animals receive the compounds according to the invention in a suspension of 5% polyethylene glycol and 0.5% Tween 80 in phosphate buffer solution p.o. or i.p. on days 0, 1, 2, 5, 7, 9, 12 and 14 [cf. for this purpose L. Sokoloff, 1984, Int. Rev. Exp. Pathol. 26, 107; M. E. J. Bittingham et al., 1989, J. Exp. Med. 171, 339; K. M. Conholly et al., 1989, Agents and Actions 27, 328].

human T cells = assay: Inhibition of 5-HT-dependent T Cell Proliferation; format: cell-based; conditions: monocyte-free human T cells stimulated with PWM and 5-HT, 3H-thymidine incorporation, 7 days
Source text: The in vitro activity of the compounds according to the invention results from their capability to inhibit T cell proliferation, which is previously stimulated by serotonin.
Inhibition of 5-HT-dependent T Cell Proliferation
Peripheral mononuclear blood cells (PBMC) are obtained from the buffy coat of the blood of healthy subjects. After isolation by means of isolymph gradients (Pharmacia), the PBMC are washed twice and used directly. Purified T cells are obtained by E rosette formation with sheep erythrocytes [cf. Blue, M.-L. , J. F. Daley, H. Levine, K. A. Craig and S. F. Schlossmann, 1986, Biosynthesis and surface expression of T8 by peripheral blood T4+cells in vitro, J. Immunol. 137, 1202]. Monocytes are partially removed by adhesion to tissue culture plates or flasks. PBMC, T cells or purified T cells (depleted in monocytes) at 5×10^5 /ml, 100 μl/well are cultured in RPMI 1640 medium with 10% fetal calf serum (GIBCO) and L-glutamine in 96-well microculture plates (Becton--Dickinson)under a 5% CO2 atmosphere at 37° C. for 7 days. The cultures are treated with 1 μCi of ^3 H-thymidine for 6 h on the 7th day and collected on filter paper, and the incorporated radioactivity is determined by means of liquid scintillation counting.
The test substances are dissolved in 10 mM HCl in order to achieve a final concentration of 1 mM in each case. The compounds are diluted serially 3×with medium in order to obtain a final concentration between 33 μM-0.1 μM. PWM (1:200, pokeweed mitogen) and 5-HT (100 μm, serotonin), which contain the test substances, are added to monocyte-free human T cells. The positive control (maximum proliferation) is obtained from cultures containing T cells, PWM and 5-HT. The negative control (minimal proliferation) is obtained from cultures containing T cells and PWM without 5-HT. The inhibitory activity of the test substances is expressed as the IC50 in μM. (see also WO 92/04015)

Compound | inhibition in vivo at 10 mg/kg [1] | IC50 (human T cells; Homo sapiens, T-cell) | Inhibition of the swelling (%), after administration of 10 mg/kg i.p. [1] | IC50 (human T cells)
c1ccc(N2CCN(CCCCCCN3CC4C5c6ccccc6C(c6ccccc65)C4C3)CC2)cc1 (stereo not shown) [Example 64] | 76% | 1 µM | – | –
Cc1ccc(N2CCN(CCCN3CC4C5c6ccccc6C(c6ccccc65)C4C3)CC2)c(C)c1 (stereo not shown) [Example 90] | 45% | 5 µM | – | –
CC12c3ccccc3C(c3ccccc31)C1C(=O)N(CCCN3CCN(c4ccc(Cl)cc4)CC3)C(=O)C12 (stereo not shown) [Example 30] | 47% | 5 µM | – | –
Clc1ccccc1N1CCN(CCCN2CC3C4c5ccccc5C(c5ccccc54)C3C2)CC1 (stereo not shown) [Example 82] | 35% | 5 µM | – | –
Cc1ccc(N2CCN(CCCN3C(=O)C4C5c6ccccc6C(c6ccccc65)C4C3=O)CC2)cc1 (stereo not shown) [Example 11] | 32% | > 10 µM | – | –
Cc1ccc(N2CCN(CCCCN3CC4C5c6ccccc6C(c6ccccc65)C4C3)CC2)cc1 (stereo not shown) [Example 74] | 76% | 0.6 µM | – | –
O=C1C2C3c4ccccc4C(CO)(c4ccccc43)C2C(=O)N1CCCN1CCN(c2ccc(F)cc2)CC1 (stereo not shown) [Example 33] | 33% | > 10 µM | – | –
c1ccc(N2CCN(CCCCCN3CC4C5c6ccccc6C(c6ccccc65)C4C3)CC2)cc1 (stereo not shown) [Example 63] | 26% | 0.5 µM | – | –
CCOc1ccccc1N1CCN(CCCN2CC3C4c5ccccc5C(c5ccccc54)C3C2)CC1 (stereo not shown) [Example 87] | 22% | 5 µM | – | –
O=C1C2C3c4ccccc4C(c4ccccc43)C2C(=O)N1CCCN1CCN(c2ccc(Cl)cc2)CC1 (stereo not shown) [Example 2] | 4% | – | – | –
Cc1cccc(C)c1N1CCN(CCCN2CC3C4c5ccccc5C(c5ccccc54)C3C2)CC1 (stereo not shown) [Example 88] | 73% | 1 µM | – | –
CC12C(=O)N(CCCN3CCN(c4ccccc4)CC3)C(=O)C1C1c3ccccc3C2c2ccccc21 (stereo not shown) [Example 39] | 20% | > 10 µM | – | –
Fc1ccccc1N1CCN(CCCCN2CC3C4c5ccccc5C(c5ccccc54)C3C2)CC1 (stereo not shown) [Example 72] | 87% | 2 µM | – | –
Clc1ccc(N2CCN(CCCN3CC4C5c6ccccc6C(c6ccccc65)C4C3)CC2)cc1 (stereo not shown) [Example 108] | – | – | 55% | 4 µM
CC12C(=O)N(CCCN3CCN(c4ccc(F)cc4)CC3)C(=O)C1C1c3ccccc3C2c2ccccc21 (stereo not shown) [Example 40] | 29% | 5 µM | – | –
Clc1ccc(N2CCN(CCCN3CC4C5c6ccccc6C(c6ccccc65)C4C3)CC2)cc1 (stereo not shown) [Example 109] | – | – | 34% | 5 µM
Fc1ccc(N2CCN(CCCN3CC4C5c6ccccc6C(c6ccccc65)C4C3)CC2)cc1 (stereo not shown) [Example 58, 13-{3-[4-(4-Fluorophenyl)-piperazin-1-yl]propyl}-9,10,11,12,14,15-hexahydro-9,10[3', 4']pyrroloanthracene] | 40% | 5 µM | – | –
O=C1C2C(C(=O)N1CCCN1CCN(c3ccc(F)cc3)CC1)C1(Br)c3ccccc3C2(Br)c2ccccc21 (stereo not shown) [Example 111] | – | – | – | 10 µM
CC12c3ccccc3C(C)(c3ccccc31)C1C(=O)N(CCCN3CCN(c4ccc(F)cc4)CC3)C(=O)C12 (stereo not shown) [Example 44] | – | – | – | > 10 µM
CC12c3ccccc3C(c3ccccc31)C1C(=O)N(CCCN3CCN(c4ccccc4)CC3)C(=O)C12 (stereo not shown) [Example 29] | 24% | > 10 µM | – | –

Compound | inhibition in vivo at 10 mg/kg [1] | IC50 (human T cells; Homo sapiens, T-cell) | Inhibition of the swelling (%), after administration of 10 mg/kg i.p. [1] | IC50 (human T cells)
O=C1C2C3c4ccccc4C(C=Cc4ccccc4)(c4ccccc43)C2C(=O)N1CCCN1CCN(c2ccc(F)cc2)CC1 (stereo not shown) [Example 38] | – | > 10 µM | – | –
COc1ccc(N2CCN(CCCN3CC4C5c6ccccc6C(c6ccccc65)C4C3)CC2)cc1 (stereo not shown) [Example 77] | – | 7 µM | – | –
O=C1C2C3c4ccccc4C(c4ccccc43)C2C(=O)N1CCCN1CCN(c2cccc(C(F)(F)F)c2)CC1 (stereo not shown) [Example 15] | – | > 10 µM | – | –
c1ccc(N2CCN(CCCN3CC4C5c6ccccc6C(c6ccccc65)C4C3)CC2)cc1 (stereo not shown) [Example 61] | 50% | 5 µM | – | –
Fc1ccc(N2CCN(CCCCN3CC4C5c6ccccc6C(c6ccccc65)C4C3)CC2)cc1 (stereo not shown) [Example 69] | – | 0.6 µM | – | –
O=C1C2C3c4ccccc4C(Cl)(c4ccccc43)C2C(=O)N1CCCN1CCN(c2ccccc2)CC1 (stereo not shown) [Example 34] | – | > 10 µM | – | –
Clc1ccccc1N1CCN(CCCCN2CC3C4c5ccccc5C(c5ccccc54)C3C2)CC1 (stereo not shown) [Example 65] | – | 0.5 µM | – | –
OCC12c3ccccc3C(c3ccccc31)C1CN(CCCN3CCN(c4ccccc4)CC3)CC12 (stereo not shown) [Example 97] | – | 10 µM | – | –
COc1cccc(N2CCN(CCCN3C(=O)C4C5c6ccccc6C(c6ccccc65)C4C3=O)CC2)c1 (stereo not shown) [Example 16] | – | > 10 µM | – | –
COc1ccc(N2CCN(CCCN3C(=O)C4C5c6ccccc6C(c6ccccc65)C4C3=O)CC2)cc1 (stereo not shown) [Example 12] | – | > 10 µM | – | –
COc1ccccc1N1CCN(CCCCN2CC3C4c5ccccc5C(c5ccccc54)C3C2)CC1 (stereo not shown) [Example 71] | 82% | 5 µM | – | –
Clc1ccc(N2CCN(CCCN3CC4C5c6ccccc6C(c6ccccc65)C4C3)CC2)cc1 (stereo not shown) [Example 59] | – | 3 µM | 53% | –
c1ccc(N2CCN(CCN3CC4C5c6ccccc6C(c6ccccc65)C4C3)CC2)cc1 (stereo not shown) [Example 60] | 40% | 5 µM | – | –
O=C1C2C3c4ccccc4C(c4ccccc43)C2C(=O)N1CCN1CCN(c2ccccc2)CC1 (stereo not shown) [Example 3] | – | > 10 µM | – | –
CCc1ccccc1N1CCN(CCCN2CC3C4c5ccccc5C(c5ccccc54)C3C2)CC1 (stereo not shown) [Example 85] | – | 3 µM | – | –
O=C1C2C3c4ccccc4C(Cl)(c4ccccc43)C2C(=O)N1CCCN1CCN(c2ccc(F)cc2)CC1 (stereo not shown) [Example 35] | – | > 10 µM | – | –
Cc1cccc(N2CCN(CCCN3C(=O)C4C5c6ccccc6C(c6ccccc65)C4C3=O)CC2)c1 (stereo not shown) [Example 14] | – | > 10 µM | – | –
O=C1C2C3c4ccccc4C(c4ccccc43)C2C(=O)N1CCCCN1CCN(c2ccccc2F)CC1 (stereo not shown) [Example 6] | – | > 10 µM | – | –
c1ccc(N2CCN(CCCCN3CC4C5c6ccccc6C(c6ccccc65)C4C3)CC2)cc1 (stereo not shown) [Example 62] | 90% | 5 µM | – | –
